Results taken from ChEMBL document CHEMBL5543142, “Discovery of YFJ-36: Design, Synthesis, and Antibacterial Activities of Catechol-Conjugated β-Lactams against Gram-Negative Bacteria” (J Med Chem, 2024).

Experiments:
[1] = system: Escherichia coli; assay: Antibacterial activity against ESBL-producing multidrug-resistant Escherichia coli clinical isolate 14-1 assessed as inhibition of bacterial growth incubated for 18 to 20 hrs by two fold serial dilution assay; format: functional; settings: time 18-20 hrs
[2] = system: Escherichia coli; assay: Antibacterial activity against ESBL-producing multidrug-resistant Escherichia coli clinical isolate 14-2 assessed as inhibition of bacterial growth incubated for 18 to 20 hrs by two fold serial dilution assay; format: functional; settings: time 18-20 hrs
[3] = system: Escherichia coli; assay: Antibacterial activity against ESBL-producing multidrug-resistant Escherichia coli clinical isolate 14-4 assessed as inhibition of bacterial growth incubated for 18 to 20 hrs by two fold serial dilution assay; format: functional; settings: time 18-20 hrs
[4] = system: Acinetobacter baumannii; assay: Antibacterial activity against OXA-23 producing multidrug-resistant Acinetobacter baumannii clinical isolate 15-1 assessed as inhibition of bacterial growth incubated for 18 to 20 hrs by two fold serial dilution assay; format: functional; settings: time 18-20 hrs
[5] = system: Acinetobacter baumannii; assay: Antibacterial activity against OXA-23 producing multidrug-resistant Acinetobacter baumannii clinical isolate 15-2 assessed as inhibition of bacterial growth incubated for 18 to 20 hrs by two fold serial dilution assay; format: functional; settings: time 18-20 hrs
[6] = system: Acinetobacter baumannii; assay: Antibacterial activity against OXA-23 producing multidrug-resistant Acinetobacter baumannii clinical isolate 15-3 assessed as inhibition of bacterial growth incubated for 18 to 20 hrs by two fold serial dilution assay; format: functional; settings: time 18-20 hrs
[7] = system: Acinetobacter baumannii; assay: Antibacterial activity against OXA-23 producing multidrug-resistant Acinetobacter baumannii clinical isolate 15-4 assessed as inhibition of bacterial growth incubated for 18 to 20 hrs by two fold serial dilution assay; format: functional; settings: time 18-20 hrs
[8] = system: Acinetobacter baumannii; assay: Antibacterial activity against OXA-23 producing multidrug-resistant Acinetobacter baumannii clinical isolate 15-5 assessed as inhibition of bacterial growth incubated for 18 to 20 hrs by two fold serial dilution assay; format: functional; settings: time 18-20 hrs
[9] = system: Klebsiella pneumoniae; assay: Antibacterial activity against KPC-2 producing multidrug-resistant Klebsiella pneumoniae clinical isolate 15-1 assessed as inhibition of bacterial growth incubated for 18 to 20 hrs by two fold serial dilution assay; format: functional; settings: time 18-20 hrs
[10] = system: Klebsiella pneumoniae; assay: Antibacterial activity against KPC-2 producing multidrug-resistant Klebsiella pneumoniae clinical isolate 15-2 assessed as inhibition of bacterial growth incubated for 18 to 20 hrs by two fold serial dilution assay; format: functional; settings: time 18-20 hrs
[11] = system: Klebsiella pneumoniae; assay: Antibacterial activity against KPC-2 producing multidrug-resistant Klebsiella pneumoniae clinical isolate 15-5 assessed as inhibition of bacterial growth incubated for 18 to 20 hrs by two fold serial dilution assay; format: functional; settings: time 18-20 hrs
[12] = system: Escherichia coli; assay: Antibacterial activity against Escherichia coli ATCC35218 assessed as inhibition of bacterial growth incubated for 18 to 20 hrs by two fold serial dilution assay; format: functional; settings: time 18-20 hrs
[13] = system: Pseudomonas aeruginosa; assay: Antibacterial activity against IMP-4 producing multidrug-resistant Pseudomonas aeruginosa clinical isolate 17-13 assessed as inhibition of bacterial growth incubated for 18 to 20 hrs by two fold serial dilution assay; format: functional; settings: time 18-20 hrs
[14] = system: Pseudomonas aeruginosa; assay: Antibacterial activity against IMP-4 producing multidrug-resistant Pseudomonas aeruginosa clinical isolate 17-1 assessed as inhibition of bacterial growth incubated for 18 to 20 hrs by two fold serial dilution assay; format: functional; settings: time 18-20 hrs
[15] = system: Pseudomonas aeruginosa; assay: Antibacterial activity against IMP-4 producing multidrug-resistant Pseudomonas aeruginosa clinical isolate 19-17 assessed as inhibition of bacterial growth incubated for 18 to 20 hrs by two fold serial dilution assay; format: functional; settings: time 18-20 hrs
[16] = system: Klebsiella pneumoniae; assay: Antibacterial activity against KPC-2 producing multidrug-resistant Klebsiella pneumoniae clinical isolate 15-3 assessed as inhibition of bacterial growth incubated for 18 to 20 hrs by two fold serial dilution assay; format: functional; settings: time 18-20 hrs
[17] = AUC (0 to infinity) in ICR mouse at 20 mg/kg,iv administration measured upto 6 hrs by LC-MS/MS analysis; format: ADME, organism-based; settings: in vivo
[18] = Clearance in ICR mouse at 20 mg/kg,iv administration measured upto 6 hrs by LC-MS/MS analysis; format: ADME, organism-based; settings: in vivo
[19] = Half life in ICR mouse at 20 mg/kg,iv administration measured upto 6 hrs by LC-MS/MS analysis; format: ADME, organism-based; settings: in vivo
[20] = MRT in ICR mouse at 20 mg/kg,iv administration measured upto 6 hrs by LC-MS/MS analysis; format: ADME, organism-based; settings: in vivo
[21] = Volume of distribution at steady state in ICR mouse at 20 mg/kg,iv administration measured upto 6 hrs by LC-MS/MS analysis; format: ADME, organism-based; settings: in vivo, read-out: Vdss
[22] = Plasma protein binding in mouse incubated for 35 mins by LC-MS/MS analysis; format: ADME, cell-free; settings: read-out: PPB (converted)
[23] = system: Acinetobacter baumannii; assay: Antibacterial activity against OXA-23 producing multidrug-resistant Acinetobacter baumannii clinical isolate 17-2 assessed as inhibition of bacterial growth incubated for 18 to 20 hrs by two fold serial dilution assay; format: functional; settings: time 18-20 hrs
[24] = system: Acinetobacter baumannii; assay: Antibacterial activity against OXA-23 producing multidrug-resistant Acinetobacter baumannii clinical isolate 17-3 assessed as inhibition of bacterial growth incubated for 18 to 20 hrs by two fold serial dilution assay; format: functional; settings: time 18-20 hrs
[25] = system: Pseudomonas aeruginosa; assay: Antibacterial activity against IMP-4 producing multidrug-resistant Pseudomonas aeruginosa clinical isolate 19-5 assessed as inhibition of bacterial growth incubated for 18 to 20 hrs by two fold serial dilution assay; format: functional; settings: time 18-20 hrs
[26] = system: Pseudomonas aeruginosa; assay: Antibacterial activity against IMP-4 producing multidrug-resistant Pseudomonas aeruginosa clinical isolate 19-1 assessed as inhibition of bacterial growth incubated for 18 to 20 hrs by two fold serial dilution assay; format: functional; settings: time 18-20 hrs

Compound | MIC [1] [µg/mL] | MIC [2] [µg/mL] | MIC [3] [µg/mL] | MIC [4] [µg/mL] | MIC [5] [µg/mL] | MIC [6] [µg/mL] | MIC [7] [µg/mL] | MIC [8] [µg/mL] | MIC [9] [µg/mL] | MIC [10] [µg/mL] | MIC [11] [µg/mL] | MIC [12] [µg/mL] | MIC [13] [µg/mL] | MIC [14] [µg/mL] | MIC [15] [µg/mL] | MIC [16] [µg/mL] | AUC(0-inf) [17] [ng·h/mL] | clearance [18] [mL/min/kg] | half-life [19] [h] | MRT [20] [h] | also measured
Nc1nc(/C(=N/OC(C(=O)O)C2CCCCC2)C(=O)N[C@@H]2C(=O)N3C(C(=O)O)=C(CSCCNC(=O)c4ccc(O)c(O)c4Cl)CS[C@H]23)cs1.O=C(O)C(F)(F)F (stereo partly drawn) | 0.125 | 1 | 0.125 | 8 | 4 | 8 | 8 | 4 | 4 | 2 | 1 | 0.125 | 1 | 4 | 0.5 | 2 | 3440 | 90.1 | 0.7 | 0.3 | Vd [21]: 1.73 L/kg
Nc1nc(/C(=N/OC(C(=O)O)C2CCC(C(F)(F)F)CC2)C(=O)N[C@@H]2C(=O)N3C(C(=O)O)=C(CSCCNC(=O)c4ccc(O)c(O)c4Cl)CS[C@H]23)cs1.O=C(O)C(F)(F)F (stereo partly drawn) | 0.25 | 1 | 0.25 | 4 | 2 | 4 | 8 | 2 | 1 | 1 | 1 | 0.06 | 0.125 | 1 | 0.5 | 1 |  |  |  |  | fraction unbound at 35 min [22]: 0.04
Nc1nc(/C(=N/OC(C(=O)O)C2CCC(F)(F)CC2)C(=O)N[C@@H]2C(=O)N3C(C(=O)O)=C(CSCCNC(=O)c4ccc(O)c(O)c4Cl)CS[C@H]23)c(Br)s1.O=C(O)C(F)(F)F (stereo partly drawn) | 0.125 | 0.125 | 0.06 | 2 | 0.5 | 1 | 4 | 4 | 0.5 | 1 | 0.25 | 0.06 | 0.06 |  | 0.125 | 0.5 | 3910 | 92.9 | 3.33 | 1.61 | MIC [23]: 0.125 µg/mL; MIC [24]: 4 µg/mL; MIC [25]: 0.25 µg/mL; MIC [26]: 8 µg/mL; Vd [21]: 9.48 L/kg
CC(C)(C)C1CCC(C(O/N=C(\C(=O)N[C@@H]2C(=O)N3C(C(=O)O)=C(CSCCNC(=O)c4ccc(O)c(O)c4Cl)CS[C@H]23)c2csc(N)n2)C(=O)O)CC1.O=C(O)C(F)(F)F (stereo partly drawn) | 0.125 | 0.5 | 0.25 | 8 | 8 | 8 | 8 | 8 | 1 | 1 | 1 | 0.06 | 4 | 4 | 0.5 | 2 | 6670 | 58 | 4.99 | 1.72 | Vd [21]: 7.23 L/kg
